Values quoted from earlier work, collected in patent US12569513B1, “Stable, highly pure L-cysteine compositions for injection and methods of use” (priority 2019, dated 2026).
Values after ≈ are worked out from the molar mass of the structure shown.

solubility: 50 mg/mL (≈ 413 mM)
Compound: N[C@@H](CS)C(=O)O [L-Cysteine, 2-Amino-3-sulfhydrylpropanoic acid]
